# What was measured:
# Format in all cases: in vivo, rat
# [1] = tested on: sciatic nerve; experiment: Counts of myelinated and unmyelinated axons 5.0 mm distal to repair by electron microscopy; details: Electron Microscopy; for #Myelinated Axons / #Unmyelinated Axons: 5.0mm. Distal to Repair, 12 mg/kg in 5% DMSO, bath + i.m. twice weekly
# Experimental: (§1) lwenty raty art anenthetizve with sel rompun (0.5 cc total volume). The right sciatic nerve is exposed and severed with microneuroscissors, and subsequently repaired microsurgically with 6-8 circumferential microsutures using 10-0 nylon. Immediately following surgery the treated animals receive 12 mg/kg Ac leupeptin in 5% DMSO (dimethylsulphoxide) as a bath on their sciatic nerve, 0.25 cc. total volume. Then the treated animals are injected intramuscularly in right hindlimb with 0.25 cc of a solution containing 12 mg/kg Ac leupeptin in 5% DMSO. Control animals receive the same surgical treatment, but the bath and intramuscular injection consist only of the solvent and 5% DMSO.
# (§2) Thereafter, treated animals are injected twice weekly in the operated hindlimb with 12 mg/kg Ac leupeptin in 5% DMSO (0.25 cc total volume) for periods of 1 week, 1 month, two months, three months - and six months. Control animals are injected with 0.25 cc of 5% DMSO twice weekly in the operated hindlimb for the same time period.
# (§3) Two treated and two control animals are assigned to each of the stated time periods.
# (§4) A ten mm. portion of the repaired sciatic nerve is excised from each animal. This is fixed in 3.0% glutaraldehyde in 0.1 M sodium cacodylate, pH 7.3, overnight for electron microscopy. After post-fixation in 1.0% osmium tetroxide, ethanol dehydration and embedding in Polybed 812, both thick (1 micron) and thin (500 A°) transverse sections are cut on a ultramicrotome. Portions of the excised muscles receive similar preparation for electron microscopy.
# (§5) Thick sections of the sciatic nerve are placed on microscope slots stained with toluidine blue and photographed at a constant magnification in the light microscope. Thin sections of both nerve and muscles are placed on 300 mesh copper grid calm, stained with uranyl acetate and lead citrate and photographed using a Hitachi HU-12 electron microscope.
# [2] = tested on: sciatic nerve; experiment: Counts of myelinated axons 5.0 mm distal to repair by light microscopy; details: for Counts of Myelinated Axons - 5.0 mm Distal to Repair by Light Microscopy 1.0 X 10^5 µm^2 - of Area: 12 mg/kg in 5% DMSO, bath + i.m. twice weekly; for % Difference Treated vs. Control: myelinated axons distal, light microscopy
# Experimental: as §1, §2, §3, §4, §5
# [3] = tested on: muscles of the operated hindlimb; experiment: Myofiber diameter by light microscopy after sciatic nerve severing and microsurgical repair; details: for Average Myofiber Diameter (µm) by Light Microscopy: 12 mg/kg in 5% DMSO, bath + i.m. twice weekly; for % Difference Treated vs. Control: myofiber diameter
# Experimental: as §1, §2, §3
# All animals are sacrified by an overdose of pentobarbital, 1.0 cc total volume. The gastro- cnemius, soleus and extensor digitorum longus muscles of the operated hindlimb are execised from origin to insertion, weighed and then frozen in isopentane in liquid nitrogen […]. For light microscopy, cryostat sections are cut, placed on slides and stained with hematoxylin and eosin and/or ATPase histochemistry at pH's of 4.3 and 10.4. Myofiber diameters are determined by photographing hematoxylin and eosin sections at a constant magnification in the light microscope.
structure (smiles),measurement,setting,value
"CC(=O)N[C@@H](CC(C)C)C(=O)N[C@@H](CC(C)C)C(=O)N[C@H](C=O)CCCNC(=N)N [Ac leupeptin, acetyl-L-leu-L-leu-L-argininal]",#Myelinated Axons,[1]; One month treated,1.2 Per 200 μm^2 of Area
same,#Unmyelinated Axons,[1]; One month treated,8 Per 200 μm^2 of Area
same,#Myelinated Axons,[1]; One week treated,4.25 Per 200 μm^2 of Area
same,#Unmyelinated Axons,[1]; One week treated,11.0 Per 200 μm^2 of Area
same,#Myelinated Axons,[1]; Six Month Treated,5 Per 200 μm^2 of Area
same,#Unmyelinated Axons,[1]; Six Month Treated,8.7 Per 200 μm^2 of Area
same,#Myelinated Axons,[1]; Three month treated,9.0 Per 200 μm^2 of Area
same,#Unmyelinated Axons,[1]; Three month treated,12.9 Per 200 μm^2 of Area
same,#Myelinated Axons,[1]; Two Month Treated,6 Per 200 μm^2 of Area
same,#Unmyelinated Axons,[1]; Two Month Treated,18 Per 200 μm^2 of Area
same,% Difference Treated vs. Control,"[1]; #Myelinated Axons distal, One month",25%
same,% Difference Treated vs. Control,"[1]; #Myelinated Axons distal, One week",53%
same,% Difference Treated vs. Control,"[1]; #Myelinated Axons distal, Six Month",1%
same,% Difference Treated vs. Control,"[1]; #Myelinated Axons distal, Three month",58%
same,% Difference Treated vs. Control,"[1]; #Myelinated Axons distal, Two Month",0%
same,% Difference Treated vs. Control,"[1]; #Unmyelinated Axons distal, One month",70%
same,% Difference Treated vs. Control,"[1]; #Unmyelinated Axons distal, One week",>100%
same,% Difference Treated vs. Control,"[1]; #Unmyelinated Axons distal, Six Month",+30%
same,% Difference Treated vs. Control,"[1]; #Unmyelinated Axons distal, Three month",61%
same,% Difference Treated vs. Control,"[1]; #Unmyelinated Axons distal, Two Month",50%
same,Counts of Myelinated Axons - 5.0 mm Distal to Repair by Light Microscopy 1.0 X 10^5 µm^2 - of Area,[2]; One Month Treated,1467 1.0 X 10^5 µm^2 - of Area
same,Counts of Myelinated Axons - 5.0 mm Distal to Repair by Light Microscopy 1.0 X 10^5 µm^2 - of Area,[2]; One Week Treated,722 1.0 X 10^5 µm^2 - of Area
same,Counts of Myelinated Axons - 5.0 mm Distal to Repair by Light Microscopy 1.0 X 10^5 µm^2 - of Area,[2]; Six Month Treated,1620 1.0 X 10^5 µm^2 - of Area
same,Counts of Myelinated Axons - 5.0 mm Distal to Repair by Light Microscopy 1.0 X 10^5 µm^2 - of Area,[2]; Three Month Treated,2808 1.0 X 10^5 µm^2 - of Area
same,Counts of Myelinated Axons - 5.0 mm Distal to Repair by Light Microscopy 1.0 X 10^5 µm^2 - of Area,[2]; Two Month Treated,1625 1.0 X 10^5 µm^2 - of Area
same,% Difference Treated vs. Control,[2]; One Month,+2%
same,% Difference Treated vs. Control,[2]; One Week,+1%
same,% Difference Treated vs. Control,[2]; Six Month,0%
same,% Difference Treated vs. Control,[2]; Three Month,+1%
same,% Difference Treated vs. Control,[2]; Two Month,+12%
same,Average Myofiber Diameter (µm) by Light Microscopy,"[3]; One Month Treated, E.D.L.",34.1 µm
same,Average Myofiber Diameter (µm) by Light Microscopy,"[3]; One Month Treated, GASTROCNEMIUS",34.5 µm
same,Average Myofiber Diameter (µm) by Light Microscopy,"[3]; One Month Treated, SOLEUS",39.4 µm
same,Average Myofiber Diameter (µm) by Light Microscopy,"[3]; One Week Treated, E.D.L.",44.6 µm
same,Average Myofiber Diameter (µm) by Light Microscopy,"[3]; One Week Treated, GASTROCNEMIUS",62.3 µm
same,Average Myofiber Diameter (µm) by Light Microscopy,"[3]; One Week Treated, SOLEUS",49.2 µm
same,Average Myofiber Diameter (µm) by Light Microscopy,"[3]; Six Month Treated, E.D.L.",75.3 µm
same,Average Myofiber Diameter (µm) by Light Microscopy,"[3]; Six Month Treated, GASTROCNEMIUS",73.1 µm
same,Average Myofiber Diameter (µm) by Light Microscopy,"[3]; Six Month Treated, SOLEUS",79.5 µm
same,Average Myofiber Diameter (µm) by Light Microscopy,"[3]; Three Month Treated, E.D.L.",44.3 µm
same,Average Myofiber Diameter (µm) by Light Microscopy,"[3]; Three Month Treated, GASTROCNEMIUS",57.2 µm
same,Average Myofiber Diameter (µm) by Light Microscopy,"[3]; Three Month Treated, SOLEUS",47.9 µm
same,Average Myofiber Diameter (µm) by Light Microscopy,"[3]; Two Month Treated, E.D.L.",28.9 µm
same,Average Myofiber Diameter (µm) by Light Microscopy,"[3]; Two Month Treated, GASTROCNEMIUS",35.4 µm
same,Average Myofiber Diameter (µm) by Light Microscopy,"[3]; Two Month Treated, SOLEUS",42.3 µm
same,% Difference Treated vs. Control,"[3]; One Month, E.D.L.",+7%
same,% Difference Treated vs. Control,"[3]; One Month, GASTROCNEMIUS",+3%
same,% Difference Treated vs. Control,"[3]; One Month, SOLEUS",+24%
same,% Difference Treated vs. Control,"[3]; One Week, E.D.L.",+5%
same,% Difference Treated vs. Control,"[3]; One Week, GASTROCNEMIUS",+23%
same,% Difference Treated vs. Control,"[3]; One Week, SOLEUS",+9%
